Reference: US20120115947A1, “COMBINATION/ASSOCIATION OF ADAPALENE AND BENZOYL PEROXIDE FOR TREATING ACNE LESIONS” (Galderma Research & Development, priority 2006, published 2012)

Key:
[1] = tested on: patients suffering from acne; experiment: Multi-centre, randomized, double-blind clinical study of adapalene + BPO topical gel versus monads and vehicle; type: in vivo; conditions: adapalene 0.1%, BPO 2.5%; for Reduction in lesions (all lesions): 12 weeks, gels once a day, rounded values of the text; for Degree of success (percentage of patients clear or almost clear): week 12, ITT (LOCF), gels once a day for 12 weeks
Protocol: A clinical study for confirmation of efficacy was performed for a topical gel combining adapalene+benzoyl peroxide (BPO). This gel has the following formulation (expressed as % weight/total weight): [table] Protocol: The clinical study was a multi-centre, randomized, double-blind study in parallel groups, to evaluate the tolerance and the efficacy of the above formulation, in comparison with its own individual active substances placed at the same doses in gels of the same formula as that of the fixed combination (individual formulae referred to as “monads”) and in comparison with the gel vehicle (placebo formula): adapalene gel (0.1%), BPO gel (2.5%) and vehicle gel. All the treatments were applied once a day for 12 weeks, to 517 patients suffering from acne. The main efficacy criteria were: the degree of success, defined as the percentage of patients considered as being “clear”, i.e., the patient has no more acne lesions (neither comedones nor inflammatory lesions), reflecting an improvement in the patient's clinical condition, or “almost clear” on the evaluation scale; the reduction of the percentage of inflammatory and non-inflammatory lesions after 12 weeks of treatment.

TPA-induced ear edema = experiment: Anti-inflammatory evaluation in TPA-induced ear edema model; type: in vivo, Balb/c mice; conditions: single topical application, T+6 hours
Protocol: Evaluation of the Anti-Inflammatory in Ear Edema Model on Balb/c Mice
The study was carried out with […] ([…]) female 9 weeks aged Balb/c ByJlc mice.
The Edema was induced by a single application of 20 μl of TPA dissolved in acetone at 0.01%.
The treatment was administrated by single topical application of tested compounds dissolved in TPA at 0.01% (groups 3, 4, 5, 6 and 7) and dissolved in TPA 0.01%+BPO (groups 8, 9 and 10).
The treatments activity was measured by inflammation evaluation with ear thickness at T+6 hours.

Row | SMILES | Reduction in lesions (all lesions) [1] | Degree of success (percentage of patients clear or almost clear) [1] | Anti-inflammatory effect on TPA-induced ear edema (in words) (TPA-induced ear edema)
1 | O=C(OOC(=O)c1ccccc1)c1ccccc1 [BPO, benzoyl peroxide] | 36% | 15% | slight anti-inflammatory effect
2 | COc1ccc(-c2ccc3cc(C(=O)O)ccc3c2)cc1C12CC3CC(CC(C3)C1)C2 [Adapalene, 6-[3-(1-Adamantyl)-4-methoxyphenyl]-2-naphthoic acid] | 35% | 16% | low anti-inflammatory effect
